Read-outs that look alike come from different tables or passages of the source.
Target: T1, NR1/NR2A (Homo sapiens, UniProt Q05586+Q12879)
T1 construct: host or cells: HEK293 (tetracycline-inducible NR2A expression)
Test: FDSS Ca2+ influx inhibition assay in HEK293 cells expressing NR1/NR2A
Type: cell-based
Method: Cell Culture and plating: HEK293 cells expressing NR1/NR2A (Chantest, Cleveland, Ohio) were grown to 70-80% confluency as an adherent monolayer in standard tissue culture flasks at 37° C., 5% CO2 per supplier's instructions.
After induction, cell culture medium was removed and cells were rinsed once with Ca^2+ and Mg^2+-free Dulbecco's phosphate buffered saline. Cells were then removed from the flask using TrypLE™ Express (Life Technologies) according to the manufacturer's instructions and collected to 50 ml centrifuge tubes. Following two washes in Ca^27 Mg^2′-free HBSS with 20 mM HEPES (HHnoCa), cells were counted and viability assessed using trypan blue. To load cells with Ca^2′-sensitive dye, they were resuspended in fluo-8 plus Component B (AAT Bioquest Products) diluted in HHnoCa and incubated 15 minutes at 37° C., followed by 30 minutes at room temp (in dark). Cells were then washed and resuspended in HHnoCa to remove extracellular dye and plated in 384-well plates (Falcon, uncoated) at 20,000-30,000 cells/well in a final volume of 25 μL/well.
FDSS Assay: To each well of the plate, 10 μLtest compound, control (MK801) or HHnoCa buffer was added to a final concentration of 10 μM with a final concentration of DMSO of 0.1%. Following 10 minutes pre-incubation in the dark, plates are loaded onto the Hamamatsu FDSS 6000. After collecting baseline fluorescence images, 3 μM glutamate, 3 μM glycine, and 1 mM Ca^2+ in HHnoCa buffer is added to each well, and Ca^2+ is recorded for 3 minutes. Data were processed by computing ratio of fluorescence at the end of data collection to baseline fluorescence to assess degree of Ca^2+ influx inhibition relative to that observed in MK801.

[1] = 3 μM glutamate, 3 μM glycine, 1 mM Ca2+, Ca2+ influx inhibition relative to MK801, read-out: NR2A IC50

T1 sequence (Q12879 23-1464, other chains not shown): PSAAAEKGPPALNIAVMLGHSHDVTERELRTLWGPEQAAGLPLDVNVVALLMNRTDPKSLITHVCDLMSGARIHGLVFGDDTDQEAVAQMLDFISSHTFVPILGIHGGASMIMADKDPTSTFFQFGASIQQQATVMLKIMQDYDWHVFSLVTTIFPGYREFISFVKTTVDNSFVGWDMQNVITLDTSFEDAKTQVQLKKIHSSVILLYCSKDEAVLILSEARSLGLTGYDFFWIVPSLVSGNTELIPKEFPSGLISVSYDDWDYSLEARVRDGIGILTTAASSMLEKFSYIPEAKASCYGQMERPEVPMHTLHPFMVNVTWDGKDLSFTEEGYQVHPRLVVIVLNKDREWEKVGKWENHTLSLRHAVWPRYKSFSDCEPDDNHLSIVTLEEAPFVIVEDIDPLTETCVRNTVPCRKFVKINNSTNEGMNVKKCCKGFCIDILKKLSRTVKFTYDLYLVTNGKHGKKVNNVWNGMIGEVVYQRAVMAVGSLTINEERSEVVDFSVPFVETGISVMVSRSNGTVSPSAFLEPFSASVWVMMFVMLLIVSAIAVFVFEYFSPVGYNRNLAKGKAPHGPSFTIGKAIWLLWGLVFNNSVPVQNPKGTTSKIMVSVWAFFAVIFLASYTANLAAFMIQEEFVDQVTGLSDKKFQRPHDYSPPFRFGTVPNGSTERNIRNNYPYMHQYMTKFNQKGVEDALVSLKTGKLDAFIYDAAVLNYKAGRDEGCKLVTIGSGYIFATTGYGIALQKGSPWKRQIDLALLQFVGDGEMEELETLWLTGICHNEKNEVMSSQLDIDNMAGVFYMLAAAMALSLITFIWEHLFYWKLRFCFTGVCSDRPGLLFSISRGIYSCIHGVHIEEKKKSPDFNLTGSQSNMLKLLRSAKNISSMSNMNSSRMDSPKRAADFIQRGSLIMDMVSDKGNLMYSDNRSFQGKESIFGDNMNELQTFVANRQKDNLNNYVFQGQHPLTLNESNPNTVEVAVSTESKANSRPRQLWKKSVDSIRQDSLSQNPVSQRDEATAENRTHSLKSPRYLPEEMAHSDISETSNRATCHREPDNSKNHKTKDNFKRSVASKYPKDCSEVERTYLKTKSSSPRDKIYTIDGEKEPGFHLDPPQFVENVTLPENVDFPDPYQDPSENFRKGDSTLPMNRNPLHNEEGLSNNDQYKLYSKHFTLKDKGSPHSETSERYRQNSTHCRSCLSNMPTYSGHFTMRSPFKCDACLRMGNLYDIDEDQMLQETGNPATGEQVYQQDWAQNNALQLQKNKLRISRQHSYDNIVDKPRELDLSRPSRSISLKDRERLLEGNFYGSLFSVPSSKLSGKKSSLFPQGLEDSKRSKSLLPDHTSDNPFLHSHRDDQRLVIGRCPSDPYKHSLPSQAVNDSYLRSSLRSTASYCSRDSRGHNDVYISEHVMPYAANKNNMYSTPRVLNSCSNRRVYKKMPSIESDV

| IC50 (binned NR2A inhibition concentration, read-out: Binned Activity) [nM] | IC50 [1] [nM] | Structure (SMILES) |
| --- | --- | --- |
| > 10000 |  | Cc1ncc(CNC(=O)c2ccc(CNS(=O)(=O)c3c(C)noc3C)cn2)s1 |
|  | 6680 | Cc1ncc(CNC(=O)c2ccc(CNS(=O)(=O)c3ccc(Cl)c(Cl)c3)cn2)s1 [5-(3,4-dichlorobenzenesulfon-amidomethyl)-N-[(2-methyl-1,3-thiazol-5-yl)methyl]pyridine-2-carboxamide] |
|  | 219 | Cc1ncc(CNC(=O)c2ccc(CNS(=O)(=O)c3ccc(F)c(F)c3)cn2)s1 [5-(3,4-difluorobenzenesulfon-amidomethyl)-N-[(2-methyl-1,3-thiazol-5-yl)methyl]pyridine-2-carboxamide] |
|  | 19.6 | Cc1ncc(CNC(=O)c2cnc(CNS(=O)(=O)c3ccc(F)c(Cl)c3)c(C)n2)s1 [5-(3-chloro-4-fluorobenzenesulfon-amidomethyl)-6-methyl-N-[(2-methyl-1,3-thiazol-5-yl)methyl]pyrazine-2-carboxamide] |
|  | 929 | O=C(NCc1cncs1)c1cnc(CNS(=O)(=O)c2ccc(F)c(Cl)c2)cn1 [5-(3-chloro-4-fluorobenzenesulfon-amidomethyl)-N-(1,3-thiazol-5-ylmethyl)pyrazine-2-carboxamide] |
|  | 347 | O=C(NCc1cncs1)c1ccc(CNS(=O)(=O)c2ccc(F)c(Cl)c2)cn1 [5-(3-chloro-4-fluorobenzenesulfon-amidomethyl)-N-(1,3-thiazol-5-ylmethyl)pyridine-2-carboxamide] |
|  | 2100 | O=C(NCc1cnccn1)c1cnc(CNS(=O)(=O)c2ccc(F)c(Cl)c2)cn1 [5-(3-chloro-4-fluorobenzenesulfon-amidomethyl)-N-(pyrazin-2-ylmethyl)pyrazine-2-carboxamide] |
|  | 1690 | O=C(NCc1cnccn1)c1ccc(CNS(=O)(=O)c2ccc(F)c(Cl)c2)cn1 [5-(3-chloro-4-fluorobenzenesulfon-amidomethyl)-N-(pyrazin-2-ylmethyl)pyridine-2-carboxamide] |
|  | 439 | O=C(NCc1cccnc1)c1cnc(CNS(=O)(=O)c2ccc(F)c(Cl)c2)cn1 [5-(3-chloro-4-fluorobenzenesulfon-amidomethyl)-N-(pyridin-3-ylmethyl)pyrazine-2-carboxamide] |
|  | 758 | O=C(NCc1cccnc1)c1ccc(CNS(=O)(=O)c2ccc(F)c(Cl)c2)cn1 [5-(3-chloro-4-fluorobenzenesulfon-amidomethyl)-N-(pyridin-3-ylmethyl)pyridine-2-carboxamide] |
|  | 1700 | O=C(NCc1ccncc1)c1cnc(CNS(=O)(=O)c2ccc(F)c(Cl)c2)cn1 [5-(3-chloro-4-fluorobenzenesulfon-amidomethyl)-N-(pyridin-4-ylmethyl)pyrazine-2-carboxamide] |
|  | 4840 | O=C(NCc1cncnc1)c1cnc(CNS(=O)(=O)c2ccc(F)c(Cl)c2)cn1 [5-(3-chloro-4-fluorobenzenesulfon-amidomethyl)-N-(pyrimidin-5-ylmethyl)pyrazine-2-carboxamide] |
|  | 5510 | CC(NC(=O)c1ccc(CNS(=O)(=O)c2ccc(F)c(Cl)c2)cn1)c1ccco1 (centres unmarked) [5-(3-chloro-4-fluorobenzenesulfon-amidomethyl)-N-[1-(furan-2-yl)ethyl]pyridine-2-carboxamide] |
|  | 757 | Cc1ccc(CNC(=O)c2cnc(CNS(=O)(=O)c3ccc(F)c(Cl)c3)cn2)n1C [5-(3-chloro-4-fluorobenzenesulfon-amidomethyl)-N-[(1,5-dimethyl-1H-pyrrol-2-yl)methyl]pyrazine-2-carboxamide] |
|  | 850 | COc1cc(CNC(=O)c2cnc(CNS(=O)(=O)c3ccc(F)c(Cl)c3)cn2)ccn1 [5-(3-chloro-4-fluorobenzenesulfon-amidomethyl)-N-[(2-methoxypyridin-4-yl)methyl]pyrazine-2-carboxamide] |
|  | 3020 | COc1cc(CNC(=O)c2ccc(CNS(=O)(=O)c3ccc(F)c(Cl)c3)cn2)ccn1 [5-(3-chloro-4-fluorobenzenesulfon-amidomethyl)-N-[(2-methoxypyridin-4-yl)methyl]pyridine-2-carboxamide] |
|  | 169 | Cc1ncc(CNC(=O)c2cnc(CNS(=O)(=O)c3ccc(F)c(Cl)c3)c(C(F)(F)F)n2)s1 [5-(3-chloro-4-fluorobenzenesulfon-amidomethyl)-N-[(2-methyl-1,3-thiazol-5-yl)methyl]-6-(trifluoromethyl)pyrazine-2-carboxamide] |
|  | 204 | Cc1ncc(CNC(=O)c2ccc(CNS(=O)(=O)c3ccc(F)c(Cl)c3)cn2)s1 [5-(3-chloro-4-fluorobenzenesulfon-amidomethyl)-N-[(2-methyl-1,3-thiazol-5-yl)methyl]pyridine-2-carboxamide] |
|  | 3370 | COc1cccc(CNC(=O)c2ccc(CNS(=O)(=O)c3ccc(F)c(Cl)c3)cn2)c1 [5-(3-chloro-4-fluorobenzenesulfon-amidomethyl)-N-[(3-methoxyphenyl)methyl] pyridine-2-carboxamide] |

The next lines start with the compound.

| Structure (SMILES) | IC50 (binned NR2A inhibition concentration, read-out: Binned Activity) [nM] | IC50 [1] [nM] |
| --- | --- | --- |
| Cc1ncc(CNC(=O)c2cnc(CNS(=O)(=O)c3ccc(Cl)c(Cl)c3)c(C)n2)s1 [5-(3,4-dichlorobenzenesulfon-amidomethyl)-6-methyl-N-[(2-methyl-1,3-thiazol-5-yl)methyl]pyrazine-2-carboxamide] |  | 494 |
| Cc1ncc(CNC(=O)c2cnc(CNS(=O)(=O)c3ccc(F)c(F)c3)cn2)s1 [5-(3,4-difluorobenzenesulfon-amidomethyl)-N-[(2-methyl-1,3-thiazol-5-yl)methyl]pyrazine-2-carboxamide] |  | 313 |
| Cc1ncc(CNC(=O)c2cnc(CNS(=O)(=O)c3cc(F)cc(F)c3)c(C)n2)s1 [5-(3,5-difluorobenzenesulfon-amidomethyl)-6-methyl-N-[(2-methyl-1,3-thiazol-5-yl)methyl]pyrazine-2-carboxamide] |  | 366 |
| CCc1nc(C(=O)NCc2cnc(C)s2)cnc1CNS(=O)(=O)c1ccc(F)c(Cl)c1 [5-(3-chloro-4-fluorobenzenesulfon-amidomethyl)-6-ethyl-N-[(2-methyl-1,3-thiazol-5-yl)methyl]pyrazine-2-carboxamide] |  | 87.8 |
| O=C(NCc1ccno1)c1ccc(CNS(=O)(=O)c2ccc(F)c(Cl)c2)cn1 [5-(3-chloro-4-fluorobenzenesulfon-amidomethyl)-N-(1,2-oxazol-5-ylmethyl)pyridine-2-carboxamide] |  | 2180 |
| O=C(NCc1cnco1)c1ccc(CNS(=O)(=O)c2ccc(F)c(Cl)c2)cn1 [5-(3-chloro-4-fluorobenzenesulfon-amidomethyl)-N-(1,3-oxazol-5-ylmethyl)pyridine-2-carboxamide] |  | 1950 |
| O=C(NCc1nccs1)c1ccc(CNS(=O)(=O)c2ccc(F)c(Cl)c2)cn1 [5-(3-chloro-4-fluorobenzenesulfon-amidomethyl)-N-(1,3-thiazol-2-ylmethyl)pyridine-2-carboxamide] |  | 9130 |
| O=C(NCc1cncnc1)c1ccc(CNS(=O)(=O)c2ccc(F)c(Cl)c2)cn1 [5-(3-chloro-4-fluorobenzenesulfon-amidomethyl)-N-(pyrimidin-5-ylmethyl)pyridine-2-carboxamide] |  | 7390 |
| Cc1ncc(C(C)NC(=O)c2cnc(CNS(=O)(=O)c3ccc(F)c(Cl)c3)cn2)s1 (centres unmarked) [5-(3-chloro-4-fluorobenzenesulfon-amidomethyl)-N-[1-(2-methyl-1,3-thiazol-5-yl)ethyl]pyrazine-2-carboxamide] |  | 180 |
| CC(NC(=O)c1ccc(CNS(=O)(=O)c2ccc(F)c(Cl)c2)cn1)c1cccs1 (centres unmarked) [5-(3-chloro-4-fluorobenzenesulfon-amidomethyl)-N-[1-(thiophen-2-yl)ethyl]pyridine-2-carboxamide] |  | 2400 |
| Cn1cncc1CNC(=O)c1cnc(CNS(=O)(=O)c2ccc(F)c(Cl)c2)cn1 [5-(3-chloro-4-fluorobenzenesulfon-amidomethyl)-N-[(1-methyl-1H-imidazol-5-yl)methyl]pyrazine-2-carboxamide] |  | 8950 |
| Cn1cncc1CNC(=O)c1ccc(CNS(=O)(=O)c2ccc(F)c(Cl)c2)cn1 [5-(3-chloro-4-fluorobenzenesulfon-amidomethyl)-N-[(1-methyl-1H-imidazol-5-yl)methyl]pyridine-2-carboxamide] |  | 8360 |
| Cn1cc(CNC(=O)c2ccc(CNS(=O)(=O)c3ccc(F)c(Cl)c3)cn2)cn1 [5-(3-chloro-4-fluorobenzenesulfon-amidomethyl)-N-[(1-methyl-1H-pyrazol-4-yl)methyl]pyridine-2-carboxamide] |  | 4590 |
| Cn1cccc1CNC(=O)c1cnc(CNS(=O)(=O)c2ccc(F)c(Cl)c2)cn1 [5-(3-chloro-4-fluorobenzenesulfon-amidomethyl)-N-[(1-methyl-1H-pyrrol-2-yl)methyl]pyrazine-2-carboxamide] |  | 3090 |
| Cn1cccc1CNC(=O)c1ccc(CNS(=O)(=O)c2ccc(F)c(Cl)c2)cn1 [5-(3-chloro-4-fluorobenzenesulfon-amidomethyl)-N-[(1-methyl-1H-pyrrol-2-yl)methyl]pyridine-2-carboxamide] |  | 2550 |
| C[C@@H](NC(=O)c1cnc(CNS(=O)(=O)c2ccc(F)c(Cl)c2)cn1)c1cncs1 [5-(3-chloro-4-fluorobenzenesulfon-amidomethyl)-N-[(1R)-1-(1,3-thiazol-5-yl)ethyl]pyrazine-2-carboxamide] |  | 10500 |
